The source made the active and inactive calls. The rule behind the calls is not given here.
Experiments:
Assay type in all cases: functional, cell-based
[1] = tested on: HepG2; assay: Inhibition of CDCA-induced FXR expression in human HepG2 cells after 18 hrs by luminometric analysis
[2] = target: T1, Bile acid receptor (Homo sapiens) (UniProt Q96RI1); assay: Antagonist activity at FXR in human HepG2 cells assessed as inhibition of CDCA-induced OSTalpha gene expression at 50 uM by real time PCR
T1 sequence (whole entry): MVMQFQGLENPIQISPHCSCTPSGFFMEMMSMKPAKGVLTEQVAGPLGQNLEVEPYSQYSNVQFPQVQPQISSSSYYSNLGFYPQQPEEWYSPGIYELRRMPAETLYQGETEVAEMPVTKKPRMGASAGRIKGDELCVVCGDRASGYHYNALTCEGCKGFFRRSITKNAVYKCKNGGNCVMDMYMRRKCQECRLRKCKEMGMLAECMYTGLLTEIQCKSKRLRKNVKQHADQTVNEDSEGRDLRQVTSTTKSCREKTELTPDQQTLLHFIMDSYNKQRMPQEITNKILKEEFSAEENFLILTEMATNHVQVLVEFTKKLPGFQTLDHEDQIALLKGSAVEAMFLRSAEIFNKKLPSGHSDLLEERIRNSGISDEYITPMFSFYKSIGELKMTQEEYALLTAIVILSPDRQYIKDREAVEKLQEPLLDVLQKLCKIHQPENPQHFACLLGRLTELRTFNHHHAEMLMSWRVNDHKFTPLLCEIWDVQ

[3] = target: T1, Bile acid receptor (Homo sapiens); assay: Antagonist activity at FXR in human HepG2 cells assessed as inhibition of CDCA-induced BSEP gene expression at 50 uM by real time PCR
[4] = target: T1, Bile acid receptor (Homo sapiens); assay: Antagonist activity at FXR in human HepG2 cells assessed as inhibition of CDCA-induced OSTbata gene expression at 50 uM by real time PCR
[5] = target: T1, Bile acid receptor (Homo sapiens); assay: Antagonist activity at FXR in human HepG2 cells assessed as inhibition of CDCA-induced Cyp7A1 gene expression at 50 uM by real time PCR
[6] = target: T1, Bile acid receptor (Homo sapiens); assay: Antagonist activity at FXR expressed in human HepG2 cells assessed as stabilization of the NCoR at the OSTalpha promoter at 50 uM after 18 hrs by chromatin immunoprecipitation

inhibition [2]: Active
inhibition [4]: Active
inhibition [5]: Active
Activity [6]: Active
SMILES: C[C@H](CO)[C@@H](C)CC[C@@H](COS(=O)(=O)O)[C@H]1CC[C@H]2[C@@H]3CC[C@@H]4[C@H](O)[C@H](OS(=O)(=O)O)CC[C@]4(C)[C@H]3CC[C@]12C
inhibition [1]: Dose-dependent effect
inhibition [3]: Active

— ChEMBL document CHEMBL1687908, “Discovery of sulfated sterols from marine invertebrates as a new class of marine natural antagonists of farnesoid-X-receptor” (J Med Chem, 2011)
